Measured values reported in article PMC11117691, “Flipping the GPCR Switch: Structure-Based Development of Selective Cannabinoid Receptor 2 Inverse Agonists” (ACS Central Science, 2024).
pEC50, pKd, pKi: −log10 of the molar value.

Key:
hCB2R [1] = target: T1, hCB2R (Homo sapiens, UniProt P34972); assay: cAMP HTRF assay in hCB2R-CHO cells; type: cell-based; design: expressed in transfected cells
Source text: One of the canonical signaling pathways of CB2R involves association with Gαi/o proteins, which elicit reversible inhibition of adenylyl cyclase resulting in a decrease of cellular cAMP levels and suppression of protein kinase A activity.[67] Consequently, we have investigated the change in cAMP levels upon probe addition using homogeneous time-resolved fluorescence (HTRF) cAMP assay (Table 3).
Homogeneous Time-Resolved Fluorescence (HTRF) cAMP assay
The homogeneous time-resolved fluorescence (HTRF) cAMP assay was conducted according to the manufacturer’s protocol for the cAMP-Gs Dynamic kit (Cisbio). Briefly, the CHO cell line stably overexpressing CB2R was maintained in Ham’s F12 supplemented with 10% FBS, penicillin (100 U/mL, Gibco-ThermoFisher), streptomycin (100 μg/mL, Gibco-ThermoFisher) and G418 (400 μg/mL, ThermoFisher). For CB2R compounds test, the cells were harvested with Cell Dissociation Buffer, resuspended in F-12 K at 0.4×10^6 cells/mL, and dispensed into 384-well low volume plates at 2000 cells/5 μL per well. The cells were stimulated with compounds diluted in Stimulation Buffer (2.5 μL/well) for 15 min at room temperature, followed by the addition of forsklin (2.5 μL 25 μM). After 15 mins incubation, reactions were stopped by 5 μL/well cAMP-d2 conjugate working solution followed by 5 μL/well of anti-cAMP cryptate working solution. After incubation for 1 h at room temperature, the plates were read in a PerkinElmer Envision reader for Time-Resolved Förster Resonance Energy Transfer (TR-FRET) at 620 nm and 665 nm.
β–arrestin recruitment assay
SNAP-tagged human CB2R HEK293-TR cells were maintained in a humidified environment at 37 °C and 5% CO2 in Dulbecco’s modified Eagle’s medium (DMEM) with 10% fetal bovine serum (FBS) containing blasticidin (5 µg/mL; Invitrogen) and (Zeocin; 20 µg/mL; Invitrogen). For receptor-inducible expression, cells were seeded into t175 cm2 flasks, grown to 70% confluence and DMEM containing 1 µg/ml tetracycline added.
HEK293TR-CB2R-nLuc cells expressing a fluorescently labelled β-arrestin protein were maintained in a humidified environment at 37 °C and 5% CO2 in Dulbecco’s modified Eagle’s medium (DMEM) with 10% fetal bovine serum (FBS) containing blasticidin (5 µg/mL; Invitrogen), Zeocin (20 µg/mL; Invitrogen) and G418 (0.2 mg/mL; Invitrogen) and used to assess compound stimulated β-arrestin recruitment to the human CB2R. Cultured cells were harvested upon reaching 70% confluency and plated at a seeding density of 50,000 cells per well. The cells were grown for 48 h until they reached confluency and then stimulated with 1 μg/mL tetracycline for a further 48 h to induce CB2R expression. Cell culture media was then aspirated from the wells and the cells were washed with assay buffer, 100 μL/well HBSS containing 0.5% BSA and 5 mM

hCB2R [2] = target: T1, hCB2R; type: cell-based; design: expressed in transfected cells; host or cells: HEK293TR cells, tetracycline-induced, live cells; conditions: HEK293TR-CB2R-nLuc cells, representative of N = 3
Protocol: HEPES. Following the wash, assay buffer containing 10 μM furimazine, 90 μL/well was added
to the wells. The plate was then incubated at 37 °C for 15 minutes to allow the nanoLuc substrate
furimazine to enter the cells. Three BRET cycles of 1-minute intervals were performed to assess
basal BRET levels, following which 10 μL of each compound, diluted in assay buffer was added
to the assay plate, which was read at 1-minute intervals for 30 minutes.
Buffer containing 10% DMSO (1% final) served as the vehicle control and
The assay buffer used to profile compounds in the CB 2R Gi-CASE system consisted of HBSS
containing 0.02% pluronic F127, 0.5% BSA and 5 mM HEPES. The reference compounds HU -
polypropylene plate. 0.5 µL of the reference and test compound serial dilutions was then added to
a white 384 well OptiplateTM (PerkinElmer) containing 39.5 μL of assay buff er. Finally, the CB 2R
membranes containing the G i-CASE biosensor were thawed and added into assay buffer containing
50 µM furimazine. Membranes (10 μL) were added to the assay plate at a final concentration of 5
µg/well. The total assay volume was 50 µL.

hCB2R [3] = target: T1, hCB2R; assay: TR-FRET saturation binding assay at CB2R; design: expressed in transfected cells; host or cells: HEK293-TR cells, tetracycline-induced; membrane preparations; conditions: TR-FRET, room temperature, HEK293 membranes of SNAP-Lumi4-Tb labeled hCB2R
hCB2R [4] = target: T1, hCB2R; assay: TR-FRET kinetic binding assay at CB2R; design: expressed in transfected cells; host or cells: HEK293-TR cells, tetracycline-induced; membrane preparations; conditions: for ΔΔG (Experimental): (R)-3 in comparison to (S)-3, from experimental Kd values
hCB2R [5] = target: T1, hCB2R; assay: BRET Gi-CASE G protein recruitment membrane assay; type: biochemical; design: expressed in transfected cells; host or cells: HEK293-TR cells, tetracycline-induced; membrane preparations; conditions: hCB2R-HEK293 T-REx membranes, mean N = 3–4; read-out: pEC50 (Gi-CASE G protein recruitment) (converted)
hCB2R [6] = target: T1, hCB2R; assay: Radioligand binding assay with [3H]-CP55,940; design: expressed in transfected cells; conditions: [3H]-CP55,940 competition, CHO-hCB2R membranes, 2 h at 30 °C
Protocol: For bindings experiments CHO cells stably expressing the human CB2R were used.14 […]
Radioligand binding assays were performed with [3H]-CP55,940 (Perkin Elmer, Austria) .
Membrane preparation was carried out according to previously published protocols.15 Briefly, competition binding experiments were carried out in duplicates at a final volume of 300 µL containing binding buffer (50 mM Tris-HCl, 2.5mM EDTA, 5 mM MgCl2, 0.5 mg/mL fatty acid-free BSA; pH 7.4), [3H]-CP55,940 (0.3 nM final concentration), compounds (semi logarithmically -spaced concentrations ranging from 0.1 nM to 10 µM) and membranes (2 µg/assay) in silanized glass vials. The reaction mixture was incubated for 2 h at 30 °C. Nonspecific binding was determined in the presence of AM630 (10 µM). Bound radioligand was separated from free radioligand by rapid filtration using 0.1% polyethlyenimine -presoaked GF/C glass fiber filter and a Skatron cell harvester. The radioactivity retained on the filters was measured by liquid scintillation. IC 50 and Ki values obtained from radioligand competition binding assays were determined by fitting the data to a three-parameter logistic Hill equation and applying the Cheng and Prusoff approximation. Data were normalized to specific binding of [3H]-CP55,940 in absence of compounds as maximum percentage (100%), which refers to an average of 4500 -5000 fmoles/mg protein for CB2R. […]

[7] = 37 °C, hCB2R-HEK293 membranes, mean N = 3

T1 sequence (P34972 whole entry): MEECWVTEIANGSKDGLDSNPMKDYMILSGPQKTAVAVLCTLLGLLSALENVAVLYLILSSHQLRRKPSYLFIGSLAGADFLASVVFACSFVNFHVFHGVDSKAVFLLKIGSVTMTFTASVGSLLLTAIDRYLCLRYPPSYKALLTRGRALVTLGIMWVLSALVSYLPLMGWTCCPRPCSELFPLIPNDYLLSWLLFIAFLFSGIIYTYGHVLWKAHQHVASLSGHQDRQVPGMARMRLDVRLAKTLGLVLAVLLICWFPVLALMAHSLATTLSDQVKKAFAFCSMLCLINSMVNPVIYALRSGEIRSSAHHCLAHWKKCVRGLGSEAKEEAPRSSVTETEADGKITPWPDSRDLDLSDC

Question: How did the pEC50 (hCB2R [1]; hCB2R-CHO cells, forskolin stimulated, mean N = 3) turn out when C#CCCC(=O)NCC1=CC(c2c(OC)cc(C(C)(C)C(CCCCCN=[N+]=[N-])c3ccccc3)cc2OC)C2CC1C2(C)C [(R)-3] was run?
Answer: The pEC50 was 7.48.

Question: What about the “Emax (cAMP)” value (hCB2R [1]; normalized to agonist CP-55,940 response (100%) and basal level (0%)) of the same compound?
Answer: The value was “–55%”.

Question: What about the “β-arrestin recruitment (BRET signal)” value (hCB2R [2]) of the same compound?
Answer: Its value is “Baseline BRET signal was retained”.

Question: What about the pKd (hCB2R [3]) of the same compound?
Answer: The pKd was 9.38.

Question: And the koff (hCB2R [4]; [7])?
Answer: Its koff is 2.29 10^–2 min^–1.

Question: And the kon (hCB2R [4]; [7])?
Answer: The kon was 88.7 10^6 M^–1 min^–1.

Question: And the “τ (receptor residence time)” value (hCB2R [4]; [7])?
Answer: Its value is 43.7 min.

Question: And the “ΔΔG (Experimental)” value (hCB2R [4])?
Answer: The value was -0.9 kcal/mol.

Question: And the “ΔΔG (Experimental)” value (hCB2R [4]; listed as (R)–3)?
Answer: Its value is “–0.90 kcal mol-1”.

Question: What about the pKd (hCB2R [4]; kinetic Kd, 37 °C, hCB2R-HEK293 membranes, mean N = 3) of the same compound?
Answer: The pKd was 9.59.

Question: What about the “ΔG (Experimental)” value (hCB2R [4]; ΔG exp = RT ln(Kd), T = 310 K, from experimental Kd values) of the same compound?
Answer: The value was “–13.6 kcal mol-1”.

Question: What about the EC50 (hCB2R [5]) of the same compound?
Answer: The EC50 was 60.3 nM.

Question: And the pKi (hCB2R [6])?
Answer: The pKi was 9.18.
